ChEMBL document CHEMBL4837201, “Increased antibacterial properties of indoline-derived phenolic Mannich bases” (Eur J Med Chem, 2021)
Values after ≈ are worked out from the molar mass of the structure shown.

Columns and labels:
Enterococcus faecalis [1] = assay: Antibacterial activity against vancomycin-resistant Enterococcus faecalis ATCC 51299 assessed as inhibition of bacterial growth incubated for 16 to 24 hrs by broth microdilution method; type: functional; conditions: time 16-24 hrs
Bacillus subtilis = assay: Antibacterial activity against Bacillus subtilis ATCC 6633 assessed as inhibition of bacterial growth incubated for 16 to 24 hrs by broth microdilution method; type: functional; conditions: time 16-24 hrs
[2] = test system: Staphylococcus epidermidis; assay: Antibacterial activity against Staphylococcus epidermidis ATCC 12228 assessed as inhibition of bacterial growth incubated for 16 to 24 hrs by broth microdilution method; type: functional; conditions: time 16-24 hrs
Staphylococcus aureus [3] = assay: Antibacterial activity against Staphylococcus aureus ATCC 6538 assessed as inhibition of bacterial growth incubated for 16 to 24 hrs by broth microdilution method; type: functional; conditions: time 16-24 hrs
Staphylococcus aureus [4] = assay: Antibacterial activity against methicillin-sensitive Staphylococcus aureus ATCC 25923 assessed as inhibition of bacterial growth incubated for 16 to 24 hrs by broth microdilution method; type: functional; conditions: time 16-24 hrs
Staphylococcus aureus [5] = assay: Antibacterial activity against methicillin-resistant Staphylococcus aureus CIP106760 assessed as inhibition of bacterial growth incubated for 16 to 24 hrs by broth microdilution method; type: functional; conditions: time 16-24 hrs
Enterococcus faecalis [6] = assay: Antibacterial activity against Enterococcus faecalis ATCC 29212 assessed as inhibition of bacterial growth incubated for 16 to 24 hrs by broth microdilution method; type: functional; conditions: time 16-24 hrs
[7] = Antioxidant activity assessed as DPPH radical scavenging activity at 10 ug/ml by DPPH assay relative to control; type: functional; conditions: dose 10.0 µg/ml
HaCaT [8] = assay: Cytotoxicity against human HaCaT cells assessed as cell viability at 50 uM after 24 hrs by MTT assay; type: cell-based; conditions: hacat, 24 h, 50 µM
[9] = Toxicity in Saccharomyces cerevisiae ATCC 2601 assessed as reduction in cell viability measured after 24 hrs by microdilution method; conditions: Saccharomyces cerevisiae, Saccharomyces cerevisiae ATCC 2601 cells
HaCaT [10] = assay: Cytotoxicity against human HaCaT cells assessed as reduction in cell viability at 50 uM after 24 hrs by MTT assay; type: cell-based
[11] = Toxicity in Artemia salina assessed as mortality at 10 ug/ml measured after 24 hrs; conditions: at 10 µg/mL
[12] = test system: Staphylococcus epidermidis; assay: Antibacterial activity against Staphylococcus epidermidis assessed as inhibition of bacterial growth incubated for 16 to 24 hrs by broth microdilution method; type: functional; conditions: time 16-24 hrs
Listeria monocytogenes = assay: Antibacterial activity against Listeria monocytogenes assessed as inhibition of bacterial growth incubated for 16 to 24 hrs by broth microdilution method; type: functional; conditions: time 16-24 hrs
Enterococcus faecalis [13] = assay: Antibacterial activity against Enterococcus faecalis assessed as inhibition of bacterial growth incubated for 16 to 24 hrs by broth microdilution method; type: functional; conditions: time 16-24 hrs
MRC5 = assay: Cytotoxicity against human MRC5 cells assessed as reduction in cell viability measured after 24 hrs by MTT assay; type: cell-based; conditions: MRC5, 24 h
Enterococcus faecium = assay: Antibacterial activity against Enterococcus faecium assessed as inhibition of bacterial growth incubated for 16 to 24 hrs by broth microdilution method; type: functional; conditions: time 16-24 hrs
Staphylococcus aureus [14] = assay: Antibacterial activity against Staphylococcus aureus assessed as inhibition of bacterial growth incubated for 16 to 24 hrs by broth microdilution method; type: functional; conditions: time 16-24 hrs

| Structure (SMILES) | MBC (Enterococcus faecalis [1]) [µM] | MIC (Enterococcus faecalis [1]) [µM] | MBC (Bacillus subtilis) [µM] | MIC (Bacillus subtilis) [µM] | MBC [2] [µM] | MIC [2] [µM] | MBC (Staphylococcus aureus [3]) [µM] | MIC (Staphylococcus aureus [3]) [µM] | MBC (Staphylococcus aureus [4]) [µM] | MIC (Staphylococcus aureus [4]) [µM] | MBC (Staphylococcus aureus [5]) [µM] | MIC (Staphylococcus aureus [5]) [µM] | MBC (Enterococcus faecalis [6]) [µM] | MIC (Enterococcus faecalis [6]) [µM] | IC50 at 24 h [9] [µM] | Activity (HaCaT [10]) | also measured |
| --- | --- | --- | --- | --- | --- | --- | --- | --- | --- | --- | --- | --- | --- | --- | --- | --- | --- |
| Cc1ccccc1C(c1cc([N+](=O)[O-])ccc1O)N1CCc2c(C#N)cccc21 (stereo unspecified) | 162 (≈ 62.4 µg/mL) | 10.1 (≈ 3.89 µg/mL) | 18.9 (≈ 7.28 µg/mL) | 4.71 (≈ 1.82 µg/mL) | 18.9 (≈ 7.28 µg/mL) | 2.36 (≈ 0.91 µg/mL) | 20.3 (≈ 7.82 µg/mL) | 5.07 (≈ 1.95 µg/mL) | 81.1 (≈ 31.3 µg/mL) | 10.1 (≈ 3.89 µg/mL) | 20.3 (≈ 7.82 µg/mL) | 5.07 (≈ 1.95 µg/mL) | 81.1 (≈ 31.3 µg/mL) | 5.07 (≈ 1.95 µg/mL) |  |  |  |
| Cc1ccc(C(c2cc([N+](=O)[O-])ccc2O)N2CCc3cc(Br)ccc32)cc1 (stereo unspecified) | 162 (≈ 71.2 µg/mL) | 10.1 (≈ 4.44 µg/mL) | 9.43 (≈ 4.14 µg/mL) | 4.71 (≈ 2.07 µg/mL) | 4.71 (≈ 2.07 µg/mL) | 9.43 (≈ 4.14 µg/mL) | < 142 | 17.8 (≈ 7.82 µg/mL) | 81.1 (≈ 35.6 µg/mL) | 10.1 (≈ 4.44 µg/mL) | 20.3 (≈ 8.92 µg/mL) | 5.07 (≈ 2.23 µg/mL) | 81.1 (≈ 35.6 µg/mL) | 5.07 (≈ 2.23 µg/mL) |  |  | Activity [7]: > 80% |
| Cc1ccccc1C(c1cc([N+](=O)[O-])ccc1O)N1CCc2cc(Br)ccc21 (stereo unspecified) | 142 (≈ 62.4 µg/mL) | 4.45 (≈ 1.95 µg/mL) | < 1.18 | < 1.18 | < 1.18 | < 1.18 | 4.45 (≈ 1.95 µg/mL) | 1.11 (≈ 0.488 µg/mL) | 35.6 (≈ 15.6 µg/mL) | 2.22 (≈ 0.975 µg/mL) | 1.11 (≈ 0.488 µg/mL) | 1.11 (≈ 0.488 µg/mL) | 8.89 (≈ 3.91 µg/mL) | 1.11 (≈ 0.488 µg/mL) | > 100 | Toxic | Activity (HaCaT [8]): Toxic |
| COc1ccc2c(c1)CCN2C(c1ccc(C)cc1)c1cc([N+](=O)[O-])ccc1O (stereo unspecified) | 160 (≈ 62.5 µg/mL) | 20 (≈ 7.81 µg/mL) | 4.71 (≈ 1.84 µg/mL) | < 1.18 | 4.71 (≈ 1.84 µg/mL) | < 1.18 | 80 (≈ 31.2 µg/mL) | 20 (≈ 7.81 µg/mL) | 160 (≈ 62.5 µg/mL) | 20 (≈ 7.81 µg/mL) | 40 (≈ 15.6 µg/mL) | 10 (≈ 3.9 µg/mL) | 160 (≈ 62.5 µg/mL) | 10 (≈ 3.9 µg/mL) |  |  |  |
| Cc1ccc(C(c2cc([N+](=O)[O-])ccc2O)N2CCc3c(C#N)cccc32)cc1 (stereo unspecified) | 172 (≈ 66.3 µg/mL) | 5.36 (≈ 2.07 µg/mL) | 9.43 (≈ 3.63 µg/mL) | 4.71 (≈ 1.82 µg/mL) | 302 (≈ 116 µg/mL) | 37.8 (≈ 14.6 µg/mL) | 40.5 (≈ 15.6 µg/mL) | 20.3 (≈ 7.82 µg/mL) | 85.8 (≈ 33.1 µg/mL) | 10.7 (≈ 4.12 µg/mL) | 21.4 (≈ 8.25 µg/mL) | 2.68 (≈ 1.03 µg/mL) | 42.9 (≈ 16.5 µg/mL) | 2.68 (≈ 1.03 µg/mL) |  |  | Activity [7]: 19% |
| O=[N+]([O-])c1ccc(O)c(C(c2ccc(Cl)cc2)N2CCc3ccccc32)c1 (stereo unspecified) | 19.7 (≈ 7.5 µg/mL) | 1.23 (≈ 0.468 µg/mL) |  |  |  |  | 2.47 (≈ 0.941 µg/mL) | 1.23 (≈ 0.468 µg/mL) | 9.86 (≈ 3.75 µg/mL) | 2.47 (≈ 0.941 µg/mL) | < 1.23 | 1.23 (≈ 0.468 µg/mL) | > 9.86 | 1.23 (≈ 0.468 µg/mL) | > 100 |  | mortality at 24 h, 10 ug/ml [11]: < 15% |
| O=[N+]([O-])c1ccc(O)c(C(c2ccc(C(F)(F)F)cc2)N2CCc3ccccc32)c1 (stereo unspecified) | 151 (≈ 62.6 µg/mL) | 1.18 (≈ 0.489 µg/mL) | < 1.18 | < 1.18 | < 1.18 | < 1.18 | 2.36 (≈ 0.978 µg/mL) | 1.18 (≈ 0.489 µg/mL) | 37.7 (≈ 15.6 µg/mL) | 1.18 (≈ 0.489 µg/mL) | 1.18 (≈ 0.489 µg/mL) | 1.18 (≈ 0.489 µg/mL) | 9.43 (≈ 3.91 µg/mL) | 1.18 (≈ 0.489 µg/mL) | > 100 | Non-Toxic | mortality at 24 h, 10 ug/ml [11]: 8%; MIC [12]: 1.18 µM (≈ 0.489 µg/mL); MIC (Listeria monocytogenes): 1.18 µM (≈ 0.489 µg/mL); Activity (HaCaT [8]): Non-Toxic; MIC (Enterococcus faecalis [13]): 2.36 µM (≈ 0.978 µg/mL); IC50 (MRC5): 1.7 µM; MIC (Enterococcus faecium): 2.36 µM (≈ 0.978 µg/mL); MIC (Staphylococcus aureus [14]): 1.18 µM (≈ 0.489 µg/mL) |
| O=[N+]([O-])c1ccc2c(c1)CCN2C(c1ccc(C(F)(F)F)cc1)c1cc([N+](=O)[O-])ccc1O (stereo unspecified) | 142 (≈ 65.2 µg/mL) | 4.45 (≈ 2.04 µg/mL) | 18.9 (≈ 8.68 µg/mL) | 9.43 (≈ 4.33 µg/mL) | 2.36 (≈ 1.08 µg/mL) | < 1.18 |  |  | 35.6 (≈ 16.4 µg/mL) | 2.22 (≈ 1.02 µg/mL) | 1.11 (≈ 0.51 µg/mL) | 1.11 (≈ 0.51 µg/mL) | 8.89 (≈ 4.08 µg/mL) | 1.11 (≈ 0.51 µg/mL) | 292 | Toxic | IC50 (MRC5): 5.8 µM |
